Experimental data published in patent US20130116219A1, “ANTIMICROBIAL CARBOLINE COMPOUNDS” (ALCON RESEARCH, LTD., priority 2011, published 2013).
Values after ≈ are worked out from the molar mass of the structure shown.

Columns and labels:
Epstein-Barr virus (EBV) = details: Harvey et al., Antiviral Res. 82:1-11, 2009; read-out: EC50, inhibition of replication of Epstein-Barr virus (EBV); cited from earlier work
[1] = system: human papillomavirus (HPV); details: Harvey et al., Antiviral Res. 82:1-11, 2009; read-out: EC50, inhibition of replication of human papillomavirus (HPV); cited from earlier work
AdV serotype 5 (Ad5) = details: Harvey et al., Antiviral Res. 82:1-11, 2009; read-out: EC50, inhibition of replication of AdV serotype 5 (Ad5); cited from earlier work
polyoma virus SV40 = details: Harvey et al., Antiviral Res. 82:1-11, 2009; read-out: EC50, inhibition of replication of polyoma virus SV40; cited from earlier work
Ad5 [2] = assay: Plaque reduction assay in A549 cells, Ad5; type: cell-based; details: unidentified adenovirus, A549, 168 h, read-out: Adenovirus Serotype EC50 (μg/mL) Ad5
Method: (§1) Compounds of the present invention were tested for potency against AdV serotypes Ad3, Ad4, Ad5, Ad7a, Ad8, Ad19, and Ad37 in a plaque reduction assay, a cell-based assay of AdV replication. Ad8, Ad19, and Ad37 are the serotypes most commonly associated with epidemic keratoconjunctivitis (EKC). Ad3, Ad4, and Ad7a are serotypes most commonly associated with follicular conjunctivitis and serotype Ad5 can replicate in the NZW rabbit model of adenoviral ocular keratitis. Ad3, Ad4, Ad5, Ad7a, Ad8, and Ad19 were recovered at the Charles T. Campbell Ophthalmic Microbiology Laboratory from patients presenting with typical adenoviral ocular disease. No clinical isolates of Ad37 were available, so the ATCC (American Type Culture Collection, Manassas, Va.) reference strain of Ad37 was used.
(§2) EC50 values (μg/ml) for inhibition of adenoviral replication were determined by plaque reduction assay. Briefly, cultured A549 cells were inoculated with approximately 100 pfu of the indicated adenovirus serotype. Inoculated cells were overlaid with methylcellulose medium containing Compound 2 at 100, 10, 1, 0.1, 0.01, and 0.001 μg/ml, and incubated at 37° C./5% CO2 for approximately 7 d. Plates were stained with gentian violet, and plaques were counted in a 25× dissecting microscope. IC50, the concentration that inhibited plaque formation by 50%, was estimated from plots of mean plaque count vs. concentration.

Ad19 = assay: Plaque reduction assay in A549 cells, Ad19; type: cell-based; details: unidentified adenovirus, 168 h, approximately 7 d, read-out: Adenovirus Serotype EC50 (μg/mL) Ad19
Method: as §1, §2

Ad37 = assay: Plaque reduction assay in A549 cells, Ad37; type: cell-based; details: unidentified adenovirus, 168 h, approximately 7 d, ATCC reference strain, read-out: Adenovirus Serotype EC50 (μg/mL) Ad37
Method: as §1, §2

Ad7a = assay: Plaque reduction assay in A549 cells, Ad7a; type: cell-based; details: unidentified adenovirus, 168 h, approximately 7 d, read-out: Adenovirus Serotype EC50 (μg/mL) Ad7a
Method: as §1, §2

Ad4 = assay: Plaque reduction assay in A549 cells, Ad4; type: cell-based; details: unidentified adenovirus, 168 h, approximately 7 d, read-out: Adenovirus Serotype EC50 (μg/mL) Ad4
Method: as §1, §2

Ad5 [3] = assay: Ad5 genome replication assay (cell-based QPCR) in A549 cells; details: Human adenovirus sp., A549, 72 h, read-out: Ad5 qPCR EC50 (μM)
Method: Compounds of the present invention were tested for potency against Ad5 in an Ad5 genome replication assay, a cell-based QPCR assay of Ad5 genome replication in A549 cells, a human lung carcinoma cell line. Serotype of human Ad5, used in this replication assay can also replicate in a NZW rabbit model of adenoviral ocular keratitis.
EC50 values (μM) for inhibition of adenoviral replication were determined by QPCR. Briefly, 10,000 cultured A549 cells were inoculated with 25,000 pfu/well for 3 hrs in 2% FBS F12-K A549 culture media. Following inoculation, A549 cells were treated with log unit dilutions of compound of Formula I (˜10 μM thru˜10 pM) in 10% FBS F12-K culture media with 0.3% DMSO for an additional 3 days. Cell viability was assessed with Alamar Blue (10 μl/well for 2 hrs; fluorescence Ex353; Em595 nm). Plates were washed 3 times with 125 μl PBS, cell lysates were prepared for QPCR analysis using Cells to SNP kit (Life Technologies). Ad5 genome levels per cell were determined with RNaseP and Ad5 hexon Taqman Assays (Life Technologies). EC50, the concentration that inhibited Ad5 genome replication formation by 50%, was estimated from plots of Ad5 genomes/cell vs. compound concentration.

Ad3 = assay: Plaque reduction assay in A549 cells, Ad3; type: cell-based; details: unidentified adenovirus, 168 h, approximately 7 d, read-out: Adenovirus Serotype EC50 (μg/mL) Ad3
Method: as §1, §2

Ad8 = assay: Plaque reduction assay in A549 cells, Ad8; type: cell-based; details: unidentified adenovirus, A549, 168 h, read-out: Adenovirus Serotype EC50 (μg/mL) Ad8
Method: as §1, §2

| Compound | EC50 (Epstein-Barr virus (EBV)) | EC50 [1] | EC50 (AdV serotype 5 (Ad5)) | EC50 (polyoma virus SV40) | EC50 (Ad5 [2]) | EC50 (Ad19) | EC50 (Ad37) | EC50 (Ad7a) | EC50 (Ad4) | EC50 (Ad5 [3]) | EC50 (Ad3) | EC50 (Ad8) |
| --- | --- | --- | --- | --- | --- | --- | --- | --- | --- | --- | --- | --- |
| O=C(N[C@@H]1CCCc2c1[nH]c1ccc(Cl)cc21)c1ccccn1 [GSK-983] | 5 to 20 nM | 5 to 20 nM | 5 to 20 nM | 5 to 20 nM |  |  |  |  |  |  |  |  |
| CC(C)C[C@H]1c2[nH]c3ccc(Cl)cc3c2CCN1C(=O)CCN1CCC(F)(F)CC1 [Compound 6, (S)-1-(6-chloro-1-isobutyl-3,4-dihydro-1H-pyrido[3,4-b]indol-2(9H)-yl)-3-(4,4-difluoropiperidin-1-yl)propan-1-one] |  |  |  |  | < 0.1 µg/mL | < 0.1 µg/mL | < 0.1 µg/mL | < 0.1 µg/mL | 0.1 to 1 µg/mL (≈ 0.228 to 2.28 µM) | < 0.1 µM | < 0.1 µg/mL | < 0.1 µg/mL |
| CC(C)C[C@H]1c2[nH]c3ccc(Cl)cc3c2CCN1C(=O)CCN1CCN(CC(F)F)CC1 [Compound 73, (S)-1-(6-chloro-1-isobutyl-3,4-dihydro-1H-pyrido[3,4-b]indol-2(9H)-yl)-3-(4-(2,2-difluoroethyl)piperazin-1-yl)propan-1-one] |  |  |  |  | 0.1 to 1 µg/mL (≈ 0.214 to 2.14 µM) | > 1 µg/mL | > 1 µg/mL | 0.1 to 1 µg/mL (≈ 0.214 to 2.14 µM) | 0.1 to 1 µg/mL (≈ 0.214 to 2.14 µM) | 0.1 to 1 µM | 0.1 to 1 µg/mL (≈ 0.214 to 2.14 µM) | 0.1 to 1 µg/mL (≈ 0.214 to 2.14 µM) |
| CC(C)C[C@H]1c2[nH]c3ccc(Cl)cc3c2CCN1C(=O)C1CN(CCC(F)(F)F)C1 [Compound 47, (S)-(6-chloro-1-isobutyl-3,4-dihydro-1H-pyrido[3,4-b]indol-2(9H)-yl)(1-(3,3,3-trifluoropropyl)azetidin-3-yl)methanone] |  |  |  |  | 0.1 to 1 µg/mL (≈ 0.226 to 2.26 µM) | 0.1 to 1 µg/mL (≈ 0.226 to 2.26 µM) | 0.1 to 1 µg/mL (≈ 0.226 to 2.26 µM) | 0.1 to 1 µg/mL (≈ 0.226 to 2.26 µM) | 0.1 to 1 µg/mL (≈ 0.226 to 2.26 µM) | 0.1 to 1 µM | 0.1 to 1 µg/mL (≈ 0.226 to 2.26 µM) | 0.1 to 1 µg/mL (≈ 0.226 to 2.26 µM) |
